The source of these data is the Bradley open melting point set (2014).

Each structure is given as a SMILES string. Values joined by “and” are separate entries in the source; they are usually repeats but may differ in a detail not shown here. Identical values can stand only once. Counter-ions that a name gives are not always drawn.

In general, melting point refers to the temperature, or range, at which the solid turns liquid. Compound `Cc1ccc(F)cc1B(O)O` [5-fluoro-2-methylbenzeneboronic acid] yielded a melting point of 149 °C.
As for `CCOC(=O)C(=O)OCC` [Diethyl oxalate], the melting point was -41 °C.
With `O=[N+]([O-])c1cccc2c(/C=N/c3ccccc3)cccc12` [N-[(1E)-(5-nitronaphthalen-1-yl)methylidene]aniline] the figure was 84 °C; with `CC(O)CN(C)C` (stereo not given) [1-dimethylamino-2-propanol], -85 °C; with `CC(=O)Nc1ccc(O)cc1` [acetaminophen], 169 °C.
Turning to `BrC(c1ccccc1)c1ccccc1` [bromodiphenylmethane], the melting point turned out to be 41 °C.
To `Cc1c(CN2CCOC(c3ccccc3)C2C)c(=O)n(-c2ccccc2)n1C` (stereo not given) [morazone] belongs 149 °C.
To `CC(O)CN` (racemic) [dl-1-amino-2-propanol] belongs -2 °C; to `CC(=O)Nc1ccccc1C(C)C` [2'-isopropylacetanilide], 73 °C.
To `OC[C@H]1O[C@@H](Oc2ccc(O)cc2)[C@H](O)[C@@H](O)[C@@H]1O` [arbutin] belongs 198 °C.
With `CCNc1nc(NC(C)(C)C)nc(SC)n1` [Terbutryn], the melting point was 105 °C.
To `NS(=O)(=O)Cc1noc2ccccc12` [Zonisamide] belongs 162 °C; to `O[C@H]1[C@H](O)[C@@H](O)[C@H](O)[C@@H](O)[C@H]1O` [myo-inositol], 226 °C.
For `C=CCN1CC[C@]23CCCC[C@H]2[C@H]1Cc1ccc(O)cc13` [Levallorphan], the melting point stood at 181 °C.
With `CCCC=NO` [butyraldoxime] the figure was -29 °C.
To `CCN(O)CC` [N,N-diethylhydroxylamine] belongs -25 °C; to `O=c1[nH]c(=O)n([C@H]2C[C@H](O)[C@@H](CO)O2)cc1F` [Floxuridine], 150 °C; to `O=C(O)C1CCN(C(=O)CCl)CC1` [N-chloroacetylisonipecotic acid], 110 °C.
With `COc1cc(C(=O)O)cc(OC)c1OC` [Eudesmic acid] the figure was 172 °C; with `Cc1cccc(O)c1` [m-Cresol], 11 °C.
In turn, `N#Cc1cccnc1Oc1ccccc1` [3-cyano-2-phenoxypyridine] had a melting point of 108 °C.
With `CC1CCC(C(C)C)C(OC(=O)C(=O)/C=C/c2ccccc2)C1` (stereo not given) the figure was 46 °C.
To `Cc1cccc([N+](=O)[O-])c1C` [3-nitro-o-xylene] belongs 14 °C; to `CC(C)(C)c1ccc(O)c(N)c1` [2-amino-4-tert-butylphenol], 163 °C.
With `OB(O)c1cc(F)c(F)c(F)c1F` [2,3,4,5-tetrafluorobenzeneboronic acid] the figure was 253 °C; with `CC1CCC(C(C)C)C(OC(=O)C2(C)CCC(C)C2(C)C)C1` (stereo not given), 50 °C.
Turning to `NC(=O)c1ccncc1` [isonicotinamide], the melting point was 157 °C.
Regarding `O=C(O)c1cc(Cl)cc(Cl)c1` [3,5-dichlorobenzoic acid], the melting point stood at 186 °C.
To `c1ccc2cc3cc4ccccc4cc3cc2c1` [Naphthacene] belongs 357 °C.
To `Cl[C@H]1[C@H](Cl)[C@@H](Cl)[C@H](Cl)[C@H](Cl)[C@H]1Cl` [a-hexachlorocyclohexane] belongs 159 °C; to `O=C(O)c1ccccc1I` [2-iodobenzoic acid], 162 °C; to `N#CCCCCCCC#N` [1,6-dicyanohexane], -3 °C.
The compound `CC(C)(C)c1ccc2oc(-c3ccc(-c4nc5cc(C(C)(C)C)ccc5o4)s3)nc2c1` [2,5-bis(5-tert-butyl-2-benzoxazolyl)thiophene] had a melting point of 201 °C.
To `CC(C)[C@@H]1CC[C@@H](C)C[C@H]1O` [L-menthol] belongs 44 °C; to `CC1(C)C(=O)OC2=C(CCC/C2=C\c2ccccc2)C1c1ccccc1` (stereo not given), 156 °C; to `CN(C)c1ccccc1` [N,N-dimethylaniline], 2 °C.
To `Cc1ccc(S(N)(=O)=O)cc1` [p-toluenesulfonamide] belongs 139 °C; to `O=C(Cl)C(Cl)(Cl)Cl` [trichloroacetyl chloride], -146 °C.
To `CSc1cccc(B(O)O)c1` [3-(methylthio)benzeneboronic acid] belongs 160 °C; to `O=c1cc(CO)occ1O` [kojic acid], 154 °C; to `CC1(C)CC(=O)CC(=O)C1` [5,5-Dimethylcyclohexane-1,3-dione], 148 °C.
In turn, `NC(=O)OCC(COC(N)=O)c1ccccc1` [felbamate] yielded a melting point of 151 °C.
With `COC(=O)Cc1ccc(Cl)c(Cl)c1` [methyl 3,4-dichlorophenylacetate] the figure was 29 °C.
To `COC(=O)CC(N)=O` [methyl malonamate] belongs 39 °C; to `C[C@@](Cc1ccc(O)c(O)c1)(NN)C(=O)O` [Carbidopa], 204 °C.
With `OC[C@H]1OC(O)[C@@H](O)[C@@H](O)[C@@H]1O` (stereo partly drawn) [D-mannose] the figure was 130 °C.
`O=C(/C=C/c1ccc(-c2ccc(Br)cc2)o1)c1ccccc1` [(2E)-3-[5-(4-Bromophenyl)-2-furyl]-1-phenylprop-2-en-1-one] displayed a melting point of 129 °C.
`OCc1ccc(Br)cc1` [4-bromobenzyl alcohol]: the melting point is 78 °C.
`COc1cc(C)c(C=CC(C)=CC=CC(C)=CC(=O)O)c(C)c1C` [acitretin] came in with a melting point of 228 °C.
The compound `Clc1ccc(-c2ccc(Cl)cc2Cl)cc1` [PCB-28] displayed a melting point of 58 °C.
With `CC(=O)c1ccc(F)cc1O` [4'-fluoro-2'-hydroxyacetophenone] the figure was 32 °C; with `Fc1ccc2cc[nH]c2c1` [6-fluoroindole], 76 °C.
With `CCC1(c2ccccc2)NC(=O)N(C)C1=O` (stereo not given) [mephenytoin] the figure was 136 °C; with `NC(=O)c1ccccc1Cc1ccccc1` [o-benzylbenzamide], 165 °C; with `Clc1cc(Cl)cc(Cl)c1` [1,3,5-Trichlorobenzene], 64 °C.
`CC(C)(C)OC(=O)NC(CC(=O)O)c1ccccc1F` (stereo not given) [3-(boc-amino)-3-(2-fluorophenyl)propionic acid] displayed a melting point of 143 °C.
Consider `CC(C)(C)C1CCC(=O)CC1` [4-tert-butylcyclohexanone], for which the melting point was determined as 49 °C.
To `O=C(O)c1ccc(F)cc1` [4-fluorobenzoic acid] belongs 185 °C.
To `CN(C)c1ccc(/C=C(/C#N)c2nc(-c3ccc(Cl)cc3)cs2)cc1` belongs 134 °C; to `Cc1cc(C)n(C(N)=O)n1` [3,5-dimethyl-1h-pyrazole-1-carboxamide], 113 °C; to `Cc1cccc(C#N)c1` [m-tolunitrile], -23 °C.
Take `Nc1ncc2ncn(COCCO)c2n1` [6-Deoxyacyclovir]: the melting point was 188 °C and 189 °C.
`CC1(O)CCCC1` [1-methylcyclopentanol] had a melting point of 37 °C.
To `COc1ccc2c3c1O[C@H]1[C@@H](O)CC[C@H]4[C@@H](C2)N(C)CC[C@@]341` [Dihydrocodeine] belongs 112 °C; to `OCc1ccc(Cl)c(Cl)c1` [3,4-dichlorobenzyl alcohol], 38 °C; to `O=[N+]([O-])c1ccc(N/N=C/C2=C(/C=C/c3ccccc3)CCCC2)c([N+](=O)[O-])c1`, 163 °C.
`O=C(Cc1ccccc1)Cc1ccccc1` [1,3-diphenylacetone] had a melting point of 34 °C.
With `CC(C)(C)OC(=O)N1CCCCC1=O` [1-boc-2-piperidone] the figure was 36 °C; with `COc1ccc(O)cc1` [4-methoxyphenol], 56 °C and 57 °C; with `ON=C1/CCCCC1` [N-Hydroxycyclohexanimine], 90 °C.
With `CCCC(=O)OCC` [Ethyl butyrate] the figure was -93 °C; with `Cc1c(C)c(C)c(CCl)c(C)c1C` [2,3,4,5,6-pentamethylbenzyl chloride], 83 °C; with `ICCI` [1,2-diiodoethane], 82 °C.
With `Cc1cc(=O)n(-c2ccccc2)n1C` [1,5-Dimethyl-2-phenyl-1,2-dihydro-3H-pyrazol-3-one] the figure was 110 °C; with `CCCCCc1ccc(-c2ccccc2)cc1` [4-n-pentylbiphenyl], 10 °C; with `CC1=CC(=O)CC(C)(C)C1=O` [2,6,6-trimethyl-2-cyclohexene-1,4-dione], 20 °C.
In the case of `COC(=O)c1ccccc1` [methyl_benzoate], the melting point was -12 °C.
To `N#CCc1ccccc1Cl` [2-chlorobenzyl_cyanide] belongs 24 °C; to `O=C(O)c1ccc(Cl)cc1Cl` [2,4-dichlorobenzoic_acid], 159 °C.
Compound `NNC(=O)c1cc(Cl)cc(Cl)c1` [3,5-dichlorobenzhydrazide] gave a melting point of 206 °C.
`Cc1ccc(C#N)cc1` [p-tolunitrile] showed a melting point of 28 °C.
To `CC(=O)OCC(OC(C)=O)C(OC(C)=O)C(OC(C)=O)C(OC(C)=O)C(=O)O` (stereo not given) [2,3,4,5,6-penta(acetyloxy)hexanoic acid] belongs 110 °C; to `COc1ccc(C=O)c(OC)c1` [2,4-dimethoxybenzaldehyde], 72 °C.
With `Nc1cccc(C(=O)O)c1` [3-aminobenzoic acid] the figure was 175 °C; with `O=C1c2ccccc2CCc2ccccc21` [dibenzosuberone], 33 °C.
With `O=C(Nc1ccccn1)C(C(F)(F)F)C(F)(F)F` the figure was 109 °C; with `CN1C(=O)OC(C)(C)C1=O` [3,5,5-trimethyloxazolidine-2,4-dione], 47 °C.
Take `COc1ccc(C(=O)c2ccc(-c3ccccc3)cc2)cc1OC` [biphenyl-4-yl(3,4-dimethoxyphenyl)methanone]: the melting point came to 108 °C.
To `CC1NC(C(=O)O)CC2=C3C=CCC=C3N=C21` (stereo not given) belongs 244 °C; to `C=CC=O` [Acrylaldehyde], -87 °C.
